Measured values as given in patent publication US12235275B2, “Fluorescent substrates for poly(ADP-ribosyl) hydrolases” (The Board of Trustees of the University of Illinois, priority 2018, dated 2025).

Tests used:
PARG [1] = molecular target: T1, PARG (Homo sapiens, UniProt Q86W56); experiment: In vitro inhibition of PARG; format: biochemical; set-up: H. sapiens full length PARG; trigger factor (TF) fusion of the pColdTF vector; made in house; host or cells: Rosetta2 (DE3) E. coli; conditions: dose-response, FIG. 4C
ARH3 [2] = molecular target: T2, ARH3 (Homo sapiens, UniProt Q9NX46); experiment: In vitro inhibition of purified ARH3; format: biochemical; set-up: H. sapiens full length ARH3; His6 (N); made in house; host or cells: Rosetta2 (DE3) E. coli; conditions: mixture of anomers
T2 sequence (Q9NX46 1-363): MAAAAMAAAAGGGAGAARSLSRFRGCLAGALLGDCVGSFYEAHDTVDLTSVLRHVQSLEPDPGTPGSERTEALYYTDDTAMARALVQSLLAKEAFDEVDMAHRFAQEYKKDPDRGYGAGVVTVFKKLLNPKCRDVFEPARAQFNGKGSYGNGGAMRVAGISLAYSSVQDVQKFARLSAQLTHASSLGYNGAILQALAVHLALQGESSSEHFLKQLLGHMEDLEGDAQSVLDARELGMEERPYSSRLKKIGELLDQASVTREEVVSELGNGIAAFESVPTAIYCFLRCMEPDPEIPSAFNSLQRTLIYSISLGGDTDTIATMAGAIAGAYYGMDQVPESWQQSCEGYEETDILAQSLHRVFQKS

[3] = molecular target: T3, H. sapiens full length PARG (Homo sapiens, UniProt Q86W56); experiment: In vitro enzyme kinetics of substrate hydrolysis; format: biochemical; conditions: hPARG
T3 construct: H. sapiens full length PARG; trigger factor (TF) fusion of the pColdTF vector; made in house; host or cells: Rosetta2 (DE3) E. coli

[4] = leaving groups pNP and TFMU; cited from earlier work
[5] = molecular target: T4, H. sapiens full length ARH3 (Homo sapiens, UniProt Q9NX46); experiment: In vitro enzyme kinetics of substrate hydrolysis
T4 sequence (Q9NX46 1-363): T2 sequence (Q9NX46 1-363)

T. thermophila PARG = molecular target: T5, T. thermophila PARG (Tetrahymena thermophila, UniProt I6L8L7); format: biochemical; conditions: ttPARG
T5 construct: made in house; host or cells: Rosetta2 (DE3) E. coli
T5 sequence (I6L8L7 1-457): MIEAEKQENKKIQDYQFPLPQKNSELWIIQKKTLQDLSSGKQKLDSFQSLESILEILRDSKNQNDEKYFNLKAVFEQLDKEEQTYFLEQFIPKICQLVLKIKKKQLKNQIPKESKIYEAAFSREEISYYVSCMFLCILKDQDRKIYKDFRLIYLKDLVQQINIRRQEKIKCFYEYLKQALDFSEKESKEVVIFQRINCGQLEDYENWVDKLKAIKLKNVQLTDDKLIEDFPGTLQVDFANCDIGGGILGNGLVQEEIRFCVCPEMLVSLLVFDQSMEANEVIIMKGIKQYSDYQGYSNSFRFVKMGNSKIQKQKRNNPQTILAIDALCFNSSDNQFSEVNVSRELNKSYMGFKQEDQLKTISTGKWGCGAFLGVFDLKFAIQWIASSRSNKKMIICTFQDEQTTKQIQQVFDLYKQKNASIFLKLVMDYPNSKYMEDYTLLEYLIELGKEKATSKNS

ARH3 [6] = experiment: Substrate hydrolysis in lysate of ARH3 knockout U2OS cells; format: biochemical; conditions: U2OS cell lysate, 200 μM substrate
Description: (§1) The ability of TFMU-IDPr to selectively report on ARH3 activity within the cellular milieu would be an important application of these probes. […] First, the hydrolysis of TFMU-IDPr was evaluated in cell lysate from a ARH3 knockout isogenic cell line pair derived from U2OS cells. […] Second, substrate processing was evaluated in the presence of the selective PARG inhibitor PDD00017273. […] Taken together, these experiments indicate that TFMU-IDPr is selectively cleaved by ARH3 in cell lysate, and TFMU-ADPr is cleaved only by ARH3 and PARG.
(§2) Cells were cultured in T75 flasks in appropriate medium. Cells were trypsinized, and scrapped (if necessary), and counted. 1×10^6 cells were harvested and washed with cold PBS 2×. Cell pellet was lysed by addition of activity lysis buffer (150 μL) and incubated on ice for 30 min. Lysate was clarified by centrifugation at 14,300×g at 4° C. for 10 min. Supernatant was transferred to chilled, empty 500 μL tube. Total protein content of lysate was evaluated by BCA assay. ARH3 expression level was determined by western blotting analysis. 5 μL lysate was added to well of 384-well black plate. 45 μL TFMU-IDPr (200 μM final) in reaction buffer was added to well. Reaction progress was monitored by fluorescent plate reader (ex 385 nm, cutoff 495, em 502 nm, 6 reads/well, high gain).

ARH3 [7] = experiment: Cell lysate ARH3 activity assay (survey of cell lines, TFMU-IDPr hydrolysis); format: biochemical; conditions: MEF cell lysate, 200 μM TFMU-IDPr
Description: as §2, with “ARH3 expression level was determined by western blotting analysis. 5 μL lysate was added to well of 384-well black plate. 45 μL TFMU-IDPr (200 μM final) in reaction buffer was added to well.” left out

ARH3 [8] = molecular target: T2, ARH3; experiment: as above; format: biochemical; set-up: endogenous in cells; conditions: 200 μM TFMU-IDPr
Description: as §2, with “ARH3 expression level was determined by western blotting analysis. 5 μL lysate was added to well of 384-well black plate. 45 μL TFMU-IDPr (200 μM final) in reaction buffer was added to well.” left out

PARG [9] = molecular target: T1, PARG; experiment: Substrate hydrolysis in U2OS cell lysate in presence of PARG inhibitor PDD00017273; format: biochemical; set-up: endogenous in cells; host or cells: U2OS (parental and ARH3 knockout) lysate
Description: as §1, §2

[10] = substrate: O=c1[nH]cnc2c1ncn2[C@@H]1OC(COP(=O)(O)OP(=O)(O)OCC2OC(Oc3ccc([N+](=O)[O-])cc3)[C@H](O)[C@@H]2O)[C@@H](O)[C@H]1O; experiment: purified protein, by the assay type; conditions: other: hARH3
[11] = substrate: O=c1cc(C(F)(F)F)c2ccc(O[C@H]3O[C@H](COP(=O)(O)OP(=O)(O)OC[C@H]4O[C@@H](n5cnc6c(=O)[nH]cnc65)[C@H](O)[C@@H]4O)[C@@H](O)[C@H]3O)cc2o1; experiment: purified protein, by the assay type; conditions: other: hARH3

T1 sequence (Q86W56 whole entry, the tested form may be a part): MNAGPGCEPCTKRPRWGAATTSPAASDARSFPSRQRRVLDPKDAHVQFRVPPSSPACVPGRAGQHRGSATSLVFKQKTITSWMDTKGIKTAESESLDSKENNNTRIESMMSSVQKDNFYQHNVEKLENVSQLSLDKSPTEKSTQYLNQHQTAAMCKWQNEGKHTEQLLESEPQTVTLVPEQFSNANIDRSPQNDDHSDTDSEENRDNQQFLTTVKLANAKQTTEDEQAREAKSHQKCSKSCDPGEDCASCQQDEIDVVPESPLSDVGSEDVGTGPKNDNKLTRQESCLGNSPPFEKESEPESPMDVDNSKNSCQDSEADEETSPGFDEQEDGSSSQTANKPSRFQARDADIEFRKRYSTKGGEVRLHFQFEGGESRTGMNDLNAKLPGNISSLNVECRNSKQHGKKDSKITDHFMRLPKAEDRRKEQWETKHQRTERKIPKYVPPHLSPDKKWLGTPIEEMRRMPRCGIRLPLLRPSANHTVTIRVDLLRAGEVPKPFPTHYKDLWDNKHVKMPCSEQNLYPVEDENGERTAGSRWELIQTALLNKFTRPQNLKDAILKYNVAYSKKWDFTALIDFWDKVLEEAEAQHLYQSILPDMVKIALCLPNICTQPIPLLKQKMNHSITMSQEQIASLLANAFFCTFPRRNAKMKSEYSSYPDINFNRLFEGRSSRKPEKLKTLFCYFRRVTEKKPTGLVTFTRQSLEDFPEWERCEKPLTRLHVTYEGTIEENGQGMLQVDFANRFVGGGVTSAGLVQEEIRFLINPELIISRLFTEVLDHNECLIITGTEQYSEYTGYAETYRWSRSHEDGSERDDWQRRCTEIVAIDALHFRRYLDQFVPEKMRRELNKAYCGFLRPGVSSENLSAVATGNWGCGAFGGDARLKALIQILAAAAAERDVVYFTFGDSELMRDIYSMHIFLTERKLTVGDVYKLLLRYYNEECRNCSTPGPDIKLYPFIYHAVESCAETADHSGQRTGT
T3 sequence (Q86W56 whole entry, the tested form may be a part): as above

Nc1ncnc2c1ncn2[C@@H]1O[C@H](COP(=O)(O)OP(=O)(O)OC[C@H]2NC[C@H](O)[C@@H]2O)[C@@H](O)[C@H]1O [ADP-HPD]
inhibition of PARG (PARG [1]): inhibits both PARG and ARH3

N=C(NCCCC(N)C(=O)O)NC1OC(COP(=O)(O)OP(=O)(O)OCC2OC(n3cnc4c(N)ncnc43)C(O)C2O)C(O)C1O (stereo not shown) [ADPr-Arg, ADP-ribosyl arginine]
inhibition of PARG (PARG [1]): markedly reduced activity against PARG | Ki (ARH3 [2]): 18 ± 2 nM

Nc1ncnc2c1ncn2[C@@H]1O[C@H](COP(=O)(O)OP(=O)(O)OC[C@H]2O[C@H](Oc3ccc4c(C(F)(F)F)cc(=O)oc4c3)[C@H](O)[C@@H]2O)[C@@H](O)[C@H]1O [TFMU-ADPr]
Vmax [3]: 0.84 ± 0.05 µmol/min/mg | pKa of the leaving group [4]: 7.26 | Vmax ([5]; hARH3): 1.61 ± 0.02 µmol/min/mg | Vmax (T. thermophila PARG): 28.6 ± 0.6 µmol/min/mg | effect of ARH3 knockout on substrate hydrolysis (ARH3 [6]): only partially decreased

O=c1cc(C(F)(F)F)c2ccc(O[C@H]3O[C@H](COP(=O)(O)OP(=O)(O)OC[C@H]4O[C@@H](n5cnc6c(=O)[nH]cnc65)[C@H](O)[C@@H]4O)[C@@H](O)[C@H]3O)cc2o1 [TFMU-IDPr]
ARH3 Activity (ARH3 [7]): 153 ± 38 milli-units/min/μg | ARH3 Activity (ARH3 [8]; A549 cell lysate): 67 ± 23 milli-units/min/μg | ARH3 Activity (ARH3 [8]; D54 cell lysate): 147 ± 34 milli-units/min/μg | ARH3 Activity (ARH3 [8]; Daudi cell lysate): 27 ± 35 milli-units/min/μg | ARH3 Activity (ARH3 [8]; HCC38 cell lysate): 100 ± 19 milli-units/min/μg | ARH3 Activity (ARH3 [8]; HCC1937 cell lysate): 76 ± 4 milli-units/min/μg | ARH3 Activity (ARH3 [8]; HCT-116 cell lysate): 173 ± 17 milli-units/min/μg | ARH3 Activity (ARH3 [8]; HEK cell lysate): 192 ± 20 milli-units/min/μg | ARH3 Activity (ARH3 [8]; HFF-1 cell lysate): 105 ± 20 milli-units/min/μg | ARH3 Activity (ARH3 [8]; HeLa cell lysate): 159 ± 18 milli-units/min/μg | ARH3 Activity (ARH3 [8]; HepG2 cell lysate): 215 ± 19 milli-units/min/μg | ARH3 Activity (ARH3 [8]; Hs578t cell lysate): 170 ± 34 milli-units/min/μg | ARH3 Activity (ARH3 [8]; Jurkat cell lysate): 36 ± 7 milli-units/min/μg | ARH3 Activity (ARH3 [8]; MCF 7 cell lysate): 92 ± 40 milli-units/min/μg | ARH3 Activity (ARH3 [8]; MCF10A cell lysate (grown with cholera toxin)): −5 ± 12 milli-units/min/μg | ARH3 Activity (ARH3 [8]; MIA PaCa-2 cell lysate): 157 ± 25 milli-units/min/μg | ARH3 Activity (ARH3 [8]; SK-MEL-5 cell lysate): 87 ± 13 milli-units/min/μg | ARH3 Activity (ARH3 [8]; T98G cell lysate): 139 ± 7 milli-units/min/μg | ARH3 Activity (ARH3 [8]; U87 cell lysate): 290 ± 52 milli-units/min/μg | ARH3 Activity (ARH3 [8]; U937 cell lysate): 137 ± 34 milli-units/min/μg | Km [3]: > 1500 µM | substrate hydrolysis in presence of PARG inhibitor PDD00017273 (PARG [9]; U2OS cell lysate, 200 μM TFMU-IDPr): unaffected | selectivity for processing by ARH3 over PARG ([5]; human ARH3 over human PARG, FIG. 2C): confirmed | Km (T. thermophila PARG): > 1500 µM | effect of ARH3 knockout on substrate hydrolysis (ARH3 [6]): near complete loss

Nc1ncnc2c1ncn2[C@@H]1O[C@H](COP(=O)(O)OP(=O)(O)OC[C@H]2O[C@@H](Oc3ccc([N+](=O)[O-])cc3)[C@H](O)[C@@H]2O)[C@@H](O)[C@H]1O [pNP-ADPr]
pKa of the leaving group [4]: 7.15 | Km ([5]; hARH3): 3.2 ± 0.6 µM | Vmax ([5]; hARH3): 1.7 ± 0.1 µmol/min/mg | stereoselectivity of hydrolysis, α versus β anomer ([5]; hARH3, FIG. 5D): selectively hydrolyzed the α anomer of pNP-ADPr over the β anomer | Km (T. thermophila PARG): 210 ± 10 µM | Vmax (T. thermophila PARG): 16.9 ± 0.5 µmol/min/mg | stereoselectivity of hydrolysis, α versus β anomer (T. thermophila PARG; FIG. 5C): selectively hydrolyzed the α anomer of pNP-ADPr over the β anomer

O=c1[nH]cnc2c1ncn2[C@@H]1OC(COP(=O)(O)OP(=O)(O)OCC2OC(Oc3ccc([N+](=O)[O-])cc3)[C@H](O)[C@@H]2O)[C@@H](O)[C@H]1O (stereo partly shown) [pNP-IDPr]
Km (T. thermophila PARG): > 1500 µM

PDD00017273 [reference compound]
inhibition of TFMU-ADPr hydrolysis (PARG [9]; ARH3−/− U2OS cell lysate, 200 μM TFMU-ADPr): completely abolished

B1: H. sapiens full length ARH3 (Homo sapiens) (protein)
chain: T2 sequence (Q9NX46 1-363)
Km [10]: 410 ± 20 µM | Vmax [10]: 5.2 µmol/min/mg | Km [11]: 312 ± 30 µM | Vmax [11]: 1.79 µmol/min/mg
